# Read-outs that look alike come from different tables or passages of the source.
# Experiments:
# Assay type in all cases: in vivo
# [1] = system: Phytophthora infestans (PHYTIN); details: 1DP, tomato (rutgers), sprayed to runoff, rate 200 ppm
# [2] = system: Erysiphe graminis f. sp. tritici (ERYSGT); assay: Powdery Mildew of Wheat one day protectant (1DP); details: wheat (Monon), sprayed to runoff, rate 200 ppm
# Experimental: Final treatment volumes were obtained by adding 0.1 percent aqueous Ethomeen T25 or 0.1 percent aqueous Spraymate X77+0.1 percent wt./vol. ammonium sulfate^+. Powdery Mildew of Wheat (Erysiphe graminis f. sp. tritici-[…]) Wheat (cultivar Monon) was grown in plastic pots (6.2 cm×8.75 cm) containing 50 percent mineral soil, 50 percent Metro-Mix 360 (W.R Grace and Co.) until the seedlings were 10-20 cm tall. These plants were then sprayed to runoff with the test compound at a rate of 200 ppm. After 24 hours the test plants were inoculated with Erysiphe graminis f. sp. tritici ([…]) by dusting spores from stock plants onto the test plants. The plants were then transferred to the greenhouse until disease developed on the untreated control plants.
# [3] = system: Septoria tritici (SEPTTR); assay: Speckled Leaf Blotch of Wheat one day protectant (1DP); details: wheat (Monon), sprayed to runoff, rate 200 ppm
# Experimental: Final treatment volumes were obtained by adding 0.1 percent aqueous Ethomeen T25 or 0.1 percent aqueous Spraymate X77+0.1 percent wt./vol. ammonium sulfate^+. Speckled Leaf Blotch of Wheat (Septoria tritici-[…]) Wheat (cultivar Monon) was grown in plastic pots (6.2 cm×8.75 cm) containing 50 percent mineral soil, 50 percent Metro-Mix 360 (W.R Grace and Co.) until the seedlings were 10-20 cm tall. These plants were then sprayed to runoff with the test compound at a rate of 200 ppm. After 24 hours the test plants were inoculated by spraying with an aqueous spore suspension of Septoria tritici ([…]). The plants were then transferred to a dew chamber for 24 hours, then to the greenhouse until disease developed on the untreated control plants.
# [4] = system: Puccinia recondita f. sp. tritici (PUCCRT); assay: Brown Rust of Wheat one day protectant (1DP); details: wheat (Monon), sprayed to runoff, rate 200 ppm
# Experimental: Final treatment volumes were obtained by adding 0.1 percent aqueous Ethomeen T25 or 0.1 percent aqueous Spraymate X77+0.1 percent wt./vol. ammonium sulfate^+. Brown Rust of Wheat (Puccinia recondita f. sp. tritici-PUCCRT) (1 DP) Wheat (cultivar Monon) was grown in plastic pots (6.2 cm×8.75 cm) containing 50 percent mineral soil, 50 percent Metro-Mix 360 (W.R Grace and Co.) until the seedlings were 10-20 cm tall. These plants were then sprayed to runoff with the test compound at a rate of 200 ppm. After 24 hours the test plants were inoculated by spraying with an aqueous spore suspension of Puccinia recondita f. sp. tritici (PUCCRT). The plants were then transferred to a dew chamber for 24 hours, then to the greenhouse until disease developed on the untreated control plants.
# [5] = system: Colletotricum lagenarium (COLLLA); assay: Cucumber Anthracnose one day protectant (1DP); details: cucumber (Bush Champion), sprayed to runoff, rate 200 ppm
# Experimental: Compound formulation was accomplished by dissolving Compound I, II, III, IV, V, or VI in water with serial dilutions to obtain desired rates. Final treatment volumes were obtained by adding 0.1 percent aqueous Ethomeen T25 or 0.1 percent aqueous Spraymate X77+0.1 percent wt./vol. ammonium sulfate^+.
# Cucumber Anthracnose (Colletotricum lagenarium; COLLLA) (1DP)
# Cucumber plants (variety Bush Champion) were grown in plastic pots containing 100 percent Metro-Mix 360 (W.R Grace and Co.) until the first true leaf was 20-80 percent expanded. Each pot contained 1 seedling. These plants were then sprayed to runoff with the test compound at a rate of 200 ppm. After 24 hours, the plants were sprayed with an aqueous spore suspension of Colletotricum lagenarium (COLLLA). The plants were then transferred to a dew chamber for 24 hours, then to a growth chamber until disease developed on the untreated control plants.
# [6] = system: Leptosphaeria nodorum (LEPTNO); assay: Glume Blotch of Wheat one day protectant (1DP); details: wheat (Yuma), sprayed to runoff, rate 200 ppm
# Experimental: Final treatment volumes were obtained by adding 0.1 percent aqueous Ethomeen T25 or 0.1 percent aqueous Spraymate X77+0.1 percent wt./vol. ammonium sulfate^+. Glume Blotch of Wheat (Leptosphaeria nodorum-[…]) Wheat (cultivar Yuma) was grown in plastic pots (6.2 cm×8.75 cm) containing 50 percent mineral soil, 50 percent Metro-Mix 360 (W.R Grace and Co.). until the seedlings were 10-20 cm tall. These plants were then sprayed to runoff with the test compound at a rate of 200 ppm. After 24 hours the test plants were inoculated by spraying with an aqueous spore suspension of Leptosphaeria nodorum ([…]). The plants were then transferred to a dew chamber for 24 hours, then to the greenhouse until disease developed on the untreated control plants.
# [7] = system: Plasmopara viticola (PLASVI); assay: Downy Mildew of Grape one day protectant (1DP); details: grape (Carignane), sprayed to runoff, rate 200 ppm
# Experimental: Final treatment volumes were obtained by adding 0.1 percent aqueous Ethomeen T25 or 0.1 percent aqueous Spraymate X77+0.1 percent wt./vol. ammonium sulfate^+. Downy Mildew of Grape (Plasmopara viticola-[…]) Vines (cultivar Carignane) were grown from seed in a soilless peat-based potting mixture “Metro-Mix 360” (W.R Grace and Co.) until the seedlings were 10-20 cm tall. These plants were then sprayed to runoff with the test compound at a rate of 200 ppm. After 24 hours the test plants were inoculated by spraying with an aqueous sporangia suspension of Plasmopara viticola ([…]). The plants were then transferred to a dew chamber for 24 hours, then to the greenhouse until disease developed on the untreated control plants.
# [8] = system: Phytophthora infestans PHYTIN; details: curative 1 day, low volume 300 L/ha, tomato
# [9] = system: Venturia inaequalis (VENTIN); assay: Apple Scab one day protectant (1DP); details: 0.1 percent Spraymate X77 + 0.1 percent ammonium sulfate
# [10] = system: Venturia inaequalis (VENTIN); assay: Apple Scab curative (compound added 2 days after inoculation); details: Curative at 200 ppm
structure (smiles),measurement,setting,value
"NC[C@@H]1NC(=O)C(C(=O)CC(NC(=O)[C@@H](N)CO)(C(=O)O)C(=O)O)=C1O [Compound I, {[(2S)-2-amino-3-hydroxypropanoyl]amino}{2-[(5S)-5-(aminomethyl)-4-hydroxy-2-oxo-2,5-dihydro-1H-pyrrol-3-yl]-2-oxoethyl}malonic acid]",PHYTIN percent control of plant disease,[1],++ (++ = 75-100 percent control of plant disease)
same,ERYSGT percent control of plant disease,[2],− (− = 0-29 percent control of plant disease)
same,SEPTTR percent control of plant disease,[3],++ (++ = 75-100 percent control of plant disease)
same,PUCCRT percent control of plant disease,[4],++ (++ = 75-100 percent control of plant disease)
same,COLLLA percent control of plant disease,[5],− (− = 0-29 percent control of plant disease)
same,LEPTNO percent control of plant disease,[6],+ (+ = 30-74 percent control of plant disease)
same,PLASVI percent control of plant disease,[7],++ (++ = 75-100 percent control of plant disease)
same,PHYTIN 1DC percent disease control,[8]; 7.8 g ai/ha,− (− = 0-29 percent control of plant disease)
same,PHYTIN 1DC percent disease control,[8]; 15.6 g ai/ha,+ (+ = 30-74 percent control of plant disease)
same,PHYTIN 1DC percent disease control,[8]; 31.2 g ai/ha,+ (+ = 30-74 percent control of plant disease)
same,PHYTIN 1DC percent disease control,[8]; 62.5 g ai/ha,− (− = 0-29 percent control of plant disease)
same,PHYTIN 1DC percent disease control,[8]; 125 g ai/ha,+ (+ = 30-74 percent control of plant disease)
same,PHYTIN 1DC percent disease control,[8]; 250 g ai/ha,++ (++ = 75-100 percent control)
same,VENTIN percent control of plant disease,[9]; 50 ppm,++ (++ = 75-100 percent control of plant disease)
same,VENTIN percent control of plant disease,[9]; 100 ppm,++ (++ = 75-100 percent control of plant disease)
same,VENTIN percent control of plant disease,[9]; rate 200 ppm,+ (+ = 30-74 percent control of plant disease)
same,VENTIN percent control of plant disease,[10],++ (++ = 75-100 percent control of plant disease)

# From patent publication US20070173539A1, “Use of malonomicin and analogs in fungicidal applications” (priority 2006, published 2007)
